Laboratory results published in patent US20230172906A1, “METHOD TO TREAT VIRAL INFECTION INDUCED BY A CORONAVIRUS” (priority 2020, published 2023).

Columns and labels:
RBD/ACE2 interaction = biological target: T1, RBD/ACE2 interaction (Homo sapiens, UniProt Q9BYF1); format: binding
T1 construct: expressed in transfected cells; host or cells: HEK293

[1] = test system: SARS-CoV-2 pseudovirus entry into HEK293 cells expressing human ACE2; format: cell-based
HEK293 cells = conditions: melatonin at 10 and 100 μM, FIG. 1B

T1 sequence (Q9BYF1 18-805): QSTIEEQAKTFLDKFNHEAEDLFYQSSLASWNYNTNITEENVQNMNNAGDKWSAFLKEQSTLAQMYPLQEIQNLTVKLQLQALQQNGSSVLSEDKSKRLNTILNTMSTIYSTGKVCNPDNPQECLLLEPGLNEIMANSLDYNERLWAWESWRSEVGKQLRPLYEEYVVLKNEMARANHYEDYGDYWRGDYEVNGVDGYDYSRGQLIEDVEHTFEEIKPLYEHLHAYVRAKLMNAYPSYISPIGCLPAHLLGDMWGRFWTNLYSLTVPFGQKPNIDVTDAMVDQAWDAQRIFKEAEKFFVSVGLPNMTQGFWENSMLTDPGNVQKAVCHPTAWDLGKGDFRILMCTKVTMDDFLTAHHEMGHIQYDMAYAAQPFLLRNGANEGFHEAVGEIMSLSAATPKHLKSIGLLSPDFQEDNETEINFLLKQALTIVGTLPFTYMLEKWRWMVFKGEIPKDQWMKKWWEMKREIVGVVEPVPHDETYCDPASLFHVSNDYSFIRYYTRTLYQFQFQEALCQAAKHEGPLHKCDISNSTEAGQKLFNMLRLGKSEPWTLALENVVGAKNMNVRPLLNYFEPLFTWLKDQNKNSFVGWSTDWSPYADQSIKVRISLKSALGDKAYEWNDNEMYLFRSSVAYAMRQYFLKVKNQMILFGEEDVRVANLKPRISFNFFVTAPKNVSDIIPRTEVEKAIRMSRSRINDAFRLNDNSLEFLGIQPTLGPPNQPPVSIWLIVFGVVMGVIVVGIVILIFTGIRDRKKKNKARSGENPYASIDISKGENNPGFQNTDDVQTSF

COc1ccc2[nH]cc(CCNC(C)=O)c2c1 [melatonin, Melatonin]
binding of RBD-d2 of the SARS-CoV-2 Spike protein to Lumi4-Tb-labeled SNAP-tagged human ACE2 (RBD/ACE2 interaction): inhibits
infection by the SARS-CoV-2 pseudovirus [1]: inhibited
cell viability (HEK293 cells): without affecting cell viability
